Data reported in PMC4286029 (Inflammation Research, 2014).

Legend:
human mast cells = conditions: Mast cell, read-out: IC50, IL-4 priming of Fcε receptor-dependent TNF-α production in mast cells
Method: The cells were then replated at 1.2 × 10^5 cells/well and cultured with 1 μg/mL anti-IgE for an additional 5 h at 37 °C. The supernatants were collected, and secretion of TNF-α was measured by ELISA.

MAPKAP-K2 = target: T1, MAPKAP-K2 (Homo sapiens, UniProt P49137); assay: KinaseProfiler selectivity: MAPKAP-K2; format: biochemical
T1 construct: purchased Millipore Co. Ltd. (KinaseProfiler service)
Method: (§1) […]; The selectivity of JTE-052 for other kinases was assessed using KinaseProfiler™ (Millipore Co. Ltd.). […].

PKCζ = target: T2, PKCζ (Homo sapiens, UniProt Q05513); assay: KinaseProfiler selectivity: PKCζ; format: biochemical
T2 construct: purchased Millipore Co. Ltd. (KinaseProfiler service)
Method: as §1

CK2 = target: T3, CK2 (Homo sapiens, UniProt P68400); assay: KinaseProfiler selectivity: CK2; format: biochemical
T3 construct: purchased Millipore Co. Ltd. (KinaseProfiler service)
Method: as §1

KDR = target: T4, KDR (Homo sapiens, UniProt P35968); assay: KinaseProfiler selectivity: KDR; format: biochemical
T4 construct: purchased Millipore Co. Ltd. (KinaseProfiler service)
Method: as §1

ROCK-II = target: T5, ROCK-II (Homo sapiens, UniProt O75116); assay: KinaseProfiler selectivity: ROCK-II; format: biochemical
T5 construct: purchased Millipore Co. Ltd. (KinaseProfiler service)
Method: as §1

PKCβI = target: T6, PKCβI (Homo sapiens, UniProt P05771); assay: KinaseProfiler selectivity: PKCβI; format: biochemical
T6 construct: purchased Millipore Co. Ltd. (KinaseProfiler service)
Method: as §1

Flt1 = target: T7, Flt1 (Homo sapiens, UniProt P17948); assay: KinaseProfiler selectivity: Flt1; format: biochemical
T7 construct: purchased Millipore Co. Ltd. (KinaseProfiler service)
Method: as §1

PKA = target: T8, PKA (Homo sapiens, UniProt P17612); assay: KinaseProfiler selectivity: PKA; format: biochemical
T8 construct: purchased Millipore Co. Ltd. (KinaseProfiler service)
Method: as §1

c-RAF = target: T9, c-RAF (Homo sapiens, UniProt P04049); assay: KinaseProfiler selectivity: c-RAF; format: biochemical
T9 construct: purchased Millipore Co. Ltd. (KinaseProfiler service)
Method: as §1

[1] = tested on: IL-6 signaling (JAK1/JAK2), Stat3 phosphorylation in hPBMCs; assay: cells; conditions: Homo sapiens, 0.25 h, read-out: IC50, IL-6 cytokine signaling (JAK1/JAK2)
Method: (§2) hPBMCs (3 × 10^6 cells/tube) were incubated with a test compound for 30 min at 37 °C, and then treated with IL-2 (100 ng/mL), IL-6 (100 ng/mL), IL-23 (100 ng/mL), IFN-α (100 ng/mL), or GM-CSF (1 ng/mL) for an additional 15 min. To terminate the stimulation, the cells were fixed with Fixation Buffer (BD Biosciences) for 10 min at 37 °C. The fixed cells were incubated with Perm Buffer II (BD Biosciences) for 30 min on ice and then incubated with fluorochrome-labeled anti-CD3, anti-CD4, or anti-phospho-Stat antibodies for 30 min at room temperature. The cytokine-induced Stat phosphorylation was analyzed and quantified using a Cytomics FC500 (Beckman Coulter Inc., Brea, CA). In the case of IL-23 stimulation, hPBMCs were precultured with 10 μg/mL phytohemagglutinin (PHA)-M (Sigma-Aldrich Co.) for 3 days to enhance their response to IL-23.
(§3) The phosphorylation levels of Stat5 (IL-2 and GM-CSF), Stat3 (IL-6 and IL-23), or Stat1 (IFN-α) in CD3^+CD4^+ cells (IL-2, IL-23, and IFN-α) or CD3^-CD4^+ cells (IL-6 and GM-CSF) were analyzed by flow cytometry. Data are presented as percentages of mean fluorescence intensity relative to vehicle (100 %) and non-stimulated control cells (0 %). Values are mean ± SEM. Three independent experiments were performed

[2] = tested on: IL-2 signaling (JAK1/JAK3), Stat5 phosphorylation in hPBMCs; assay: cells; conditions: Homo sapiens, 0.25 h, read-out: IC50, IL-2 cytokine signaling (JAK1/JAK3)
Method: as §2, §3

[3] = tested on: IL-23 signaling (JAK2/Tyk2), Stat3 phosphorylation in hPBMCs; assay: cells; conditions: Homo sapiens, 0.25 h, read-out: IC50, IL-23 cytokine signaling (JAK2/Tyk2)
Method: as §2, §3

[4] = tested on: GM-CSF signaling (JAK2/JAK2), Stat5 phosphorylation in hPBMCs; assay: cells; conditions: Homo sapiens, 0.25 h, read-out: IC50, GM-CSF cytokine signaling (JAK2/JAK2)
Method: as §2, §3

[5] = tested on: IFN-α signaling (JAK1/Tyk2), Stat1 phosphorylation in hPBMCs; assay: cells; conditions: Homo sapiens, 0.25 h, read-out: IC50, IFN-α cytokine signaling (JAK1/Tyk2)
Method: as §2, §3

IGF-1R = target: T10, IGF-1R (Homo sapiens, UniProt P08069); assay: KinaseProfiler selectivity: IGF-1R; format: biochemical
T10 construct: purchased Millipore Co. Ltd. (KinaseProfiler service)
Method: as §1

FGFR1 = target: T11, FGFR1 (Homo sapiens, UniProt P11362); assay: KinaseProfiler selectivity: FGFR1; format: biochemical
T11 construct: purchased Millipore Co. Ltd. (KinaseProfiler service)
Method: as §1

PKBα = target: T12, PKBα (Homo sapiens, UniProt P31749); assay: KinaseProfiler selectivity: PKBα; format: biochemical
T12 construct: purchased Millipore Co. Ltd. (KinaseProfiler service)
Method: as §1

human monocytes = assay: GM-CSF-induced TNF-α production from monocytes (ELISA); conditions: Monocyte, read-out: IC50, GM-CSF enhancement of TNF-α production upon LPS stimulation in monocytes
Method: The cells were then cultured with 0.1 ng/mL lipopolysaccharide (LPS) for an additional 6 h at 37 °C. The supernatants were collected, and secretion of TNF-α was measured by ELISA.

cKit = target: T13, cKit (Homo sapiens, UniProt P10721); assay: KinaseProfiler selectivity: cKit; format: biochemical
T13 construct: purchased Millipore Co. Ltd. (KinaseProfiler service)
Method: as §1

Flt3 = target: T14, Flt3 (Homo sapiens, UniProt P36888); assay: KinaseProfiler selectivity: Flt3; format: biochemical
T14 construct: purchased Millipore Co. Ltd. (KinaseProfiler service)
Method: as §1

Aurora-A = target: T15, Aurora-A (Homo sapiens, UniProt O14965); assay: KinaseProfiler selectivity: Aurora-A; format: biochemical
T15 construct: purchased Millipore Co. Ltd. (KinaseProfiler service)
Method: as §1

PDGFRα = target: T16, PDGFRα (Homo sapiens, UniProt P16234); assay: KinaseProfiler selectivity: PDGFRα; format: biochemical
T16 construct: purchased Millipore Co. Ltd. (KinaseProfiler service)
Method: as §1

Tie2 = target: T17, Tie2 (Homo sapiens, UniProt Q02763); assay: KinaseProfiler selectivity: Tie2; format: biochemical
T17 construct: purchased Millipore Co. Ltd. (KinaseProfiler service)
Method: as §1

PDK1 = target: T18, PDK1 (Homo sapiens, UniProt O15530); assay: KinaseProfiler selectivity: PDK1; format: biochemical
T18 construct: purchased Millipore Co. Ltd. (KinaseProfiler service)
Method: as §1

MSK1 = target: T19, MSK1 (Homo sapiens, UniProt O75582); assay: KinaseProfiler selectivity: MSK1; format: biochemical
T19 construct: purchased Millipore Co. Ltd. (KinaseProfiler service)
Method: as §1

CDK2/cyclinA = target: T20, CDK2/cyclinA (Homo sapiens, UniProt P24941); assay: KinaseProfiler selectivity: CDK2/cyclinA; format: biochemical
T20 construct: purchased Millipore Co. Ltd. (KinaseProfiler service)
Method: as §1

MAPK2 = target: T21, MAPK2 (Homo sapiens, UniProt P28482); assay: KinaseProfiler selectivity: MAPK2; format: biochemical
T21 construct: purchased Millipore Co. Ltd. (KinaseProfiler service)
Method: as §1

ZAP-70 = target: T22, ZAP-70 (Homo sapiens, UniProt P43403); assay: KinaseProfiler selectivity: ZAP-70; format: biochemical
T22 construct: purchased Millipore Co. Ltd. (KinaseProfiler service)
Method: as §1

IR = target: T23, IR (Homo sapiens, UniProt P06213); assay: KinaseProfiler selectivity: IR; format: biochemical
T23 construct: purchased Millipore Co. Ltd. (KinaseProfiler service)
Method: as §1

T22 sequence (P43403 whole entry): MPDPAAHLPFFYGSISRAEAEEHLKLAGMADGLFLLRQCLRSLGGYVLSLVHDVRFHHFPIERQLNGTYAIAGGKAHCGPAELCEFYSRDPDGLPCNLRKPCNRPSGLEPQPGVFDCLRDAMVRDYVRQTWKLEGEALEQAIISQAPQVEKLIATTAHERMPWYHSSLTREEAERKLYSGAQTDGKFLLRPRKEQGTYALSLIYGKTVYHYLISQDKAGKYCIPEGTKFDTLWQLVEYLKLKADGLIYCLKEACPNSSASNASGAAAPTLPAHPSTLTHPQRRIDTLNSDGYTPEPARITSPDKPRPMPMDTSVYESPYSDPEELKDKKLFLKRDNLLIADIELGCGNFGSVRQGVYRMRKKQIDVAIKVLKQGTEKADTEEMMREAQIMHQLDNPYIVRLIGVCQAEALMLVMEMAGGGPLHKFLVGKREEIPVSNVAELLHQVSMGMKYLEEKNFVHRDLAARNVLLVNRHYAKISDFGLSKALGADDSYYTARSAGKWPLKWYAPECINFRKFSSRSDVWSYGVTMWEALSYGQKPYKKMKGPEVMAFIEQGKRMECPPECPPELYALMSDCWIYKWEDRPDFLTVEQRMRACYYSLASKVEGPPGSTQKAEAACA
T3 sequence (P68400 whole entry): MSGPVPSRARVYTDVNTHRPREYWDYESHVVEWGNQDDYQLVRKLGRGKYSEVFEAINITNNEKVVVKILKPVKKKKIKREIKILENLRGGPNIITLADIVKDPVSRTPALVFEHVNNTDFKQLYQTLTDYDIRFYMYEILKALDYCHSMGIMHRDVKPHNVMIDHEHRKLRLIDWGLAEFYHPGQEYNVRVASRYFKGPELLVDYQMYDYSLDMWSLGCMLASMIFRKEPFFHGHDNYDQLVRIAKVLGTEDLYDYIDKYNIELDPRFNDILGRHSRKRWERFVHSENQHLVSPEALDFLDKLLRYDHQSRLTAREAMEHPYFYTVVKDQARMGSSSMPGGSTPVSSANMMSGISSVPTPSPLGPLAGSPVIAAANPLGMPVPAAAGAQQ
T3 sequence (P67870 whole entry partner): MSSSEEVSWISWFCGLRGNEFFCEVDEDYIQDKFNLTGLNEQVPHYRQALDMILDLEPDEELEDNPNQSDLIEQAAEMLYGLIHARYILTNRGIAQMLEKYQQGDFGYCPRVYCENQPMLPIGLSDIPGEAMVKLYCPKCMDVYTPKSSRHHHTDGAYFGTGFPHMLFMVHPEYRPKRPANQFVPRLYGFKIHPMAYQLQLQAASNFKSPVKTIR
T23 sequence (P06213 28-1382): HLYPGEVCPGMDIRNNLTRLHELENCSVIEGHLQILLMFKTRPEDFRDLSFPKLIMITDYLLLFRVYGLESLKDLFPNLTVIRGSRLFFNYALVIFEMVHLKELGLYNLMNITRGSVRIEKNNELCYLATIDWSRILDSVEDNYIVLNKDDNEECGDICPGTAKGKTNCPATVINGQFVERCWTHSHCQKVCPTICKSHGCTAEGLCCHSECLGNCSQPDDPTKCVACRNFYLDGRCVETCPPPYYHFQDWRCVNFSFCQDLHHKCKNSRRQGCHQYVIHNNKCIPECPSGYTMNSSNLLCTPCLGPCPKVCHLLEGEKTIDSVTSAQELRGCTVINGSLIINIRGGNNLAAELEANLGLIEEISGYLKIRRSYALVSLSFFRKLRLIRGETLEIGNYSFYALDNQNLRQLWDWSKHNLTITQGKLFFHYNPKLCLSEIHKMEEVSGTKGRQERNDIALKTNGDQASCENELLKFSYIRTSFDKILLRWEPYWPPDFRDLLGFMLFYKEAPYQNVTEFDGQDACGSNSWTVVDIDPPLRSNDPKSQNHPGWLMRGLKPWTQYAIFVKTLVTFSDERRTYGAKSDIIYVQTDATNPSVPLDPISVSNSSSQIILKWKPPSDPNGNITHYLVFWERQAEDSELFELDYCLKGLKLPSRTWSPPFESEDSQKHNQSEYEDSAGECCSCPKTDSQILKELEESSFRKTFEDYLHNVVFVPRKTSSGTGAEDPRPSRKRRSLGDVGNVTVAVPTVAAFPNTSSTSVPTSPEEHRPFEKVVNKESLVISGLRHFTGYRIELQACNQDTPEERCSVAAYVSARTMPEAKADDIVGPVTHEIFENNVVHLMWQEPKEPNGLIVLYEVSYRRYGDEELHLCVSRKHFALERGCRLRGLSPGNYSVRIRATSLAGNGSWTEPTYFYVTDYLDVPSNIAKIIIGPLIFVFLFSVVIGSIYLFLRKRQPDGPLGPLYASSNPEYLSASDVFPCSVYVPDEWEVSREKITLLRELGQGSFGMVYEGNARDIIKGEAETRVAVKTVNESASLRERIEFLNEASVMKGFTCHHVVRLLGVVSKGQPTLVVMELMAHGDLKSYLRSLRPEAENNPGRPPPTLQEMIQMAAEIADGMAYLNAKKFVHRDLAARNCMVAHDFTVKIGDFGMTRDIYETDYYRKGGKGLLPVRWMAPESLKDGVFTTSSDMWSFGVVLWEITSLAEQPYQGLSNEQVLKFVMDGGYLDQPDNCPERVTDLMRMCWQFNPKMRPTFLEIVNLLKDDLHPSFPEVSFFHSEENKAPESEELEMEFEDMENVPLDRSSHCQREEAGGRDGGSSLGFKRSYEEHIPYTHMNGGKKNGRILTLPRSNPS
T21 sequence (P28482 whole entry): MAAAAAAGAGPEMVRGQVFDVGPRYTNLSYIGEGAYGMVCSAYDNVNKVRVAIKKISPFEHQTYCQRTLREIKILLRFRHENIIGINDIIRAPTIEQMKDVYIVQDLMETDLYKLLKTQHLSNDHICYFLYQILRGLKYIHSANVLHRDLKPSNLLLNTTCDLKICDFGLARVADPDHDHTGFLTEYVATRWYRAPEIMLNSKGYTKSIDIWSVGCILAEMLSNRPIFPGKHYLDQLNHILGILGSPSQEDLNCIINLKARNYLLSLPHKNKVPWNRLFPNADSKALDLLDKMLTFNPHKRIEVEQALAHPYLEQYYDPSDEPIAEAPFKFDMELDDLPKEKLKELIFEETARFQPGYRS
T6 sequence (P05771 whole entry): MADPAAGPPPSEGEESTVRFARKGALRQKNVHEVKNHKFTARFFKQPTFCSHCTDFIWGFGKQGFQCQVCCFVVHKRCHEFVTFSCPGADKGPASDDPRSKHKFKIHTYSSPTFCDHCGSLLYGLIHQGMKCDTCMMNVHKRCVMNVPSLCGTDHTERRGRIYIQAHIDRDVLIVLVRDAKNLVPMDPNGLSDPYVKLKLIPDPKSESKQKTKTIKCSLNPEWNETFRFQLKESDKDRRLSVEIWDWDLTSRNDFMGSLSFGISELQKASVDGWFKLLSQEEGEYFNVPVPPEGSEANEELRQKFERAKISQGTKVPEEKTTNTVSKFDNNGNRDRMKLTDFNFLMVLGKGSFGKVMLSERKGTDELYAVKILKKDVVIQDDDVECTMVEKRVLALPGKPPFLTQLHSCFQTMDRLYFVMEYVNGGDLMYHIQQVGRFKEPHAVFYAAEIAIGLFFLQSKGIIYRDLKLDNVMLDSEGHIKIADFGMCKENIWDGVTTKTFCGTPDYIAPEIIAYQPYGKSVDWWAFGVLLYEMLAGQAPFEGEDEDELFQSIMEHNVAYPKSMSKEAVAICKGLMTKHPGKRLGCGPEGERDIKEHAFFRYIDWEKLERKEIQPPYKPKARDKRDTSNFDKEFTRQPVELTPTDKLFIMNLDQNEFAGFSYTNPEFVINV
T4 sequence (P35968 20-1356, species assumed): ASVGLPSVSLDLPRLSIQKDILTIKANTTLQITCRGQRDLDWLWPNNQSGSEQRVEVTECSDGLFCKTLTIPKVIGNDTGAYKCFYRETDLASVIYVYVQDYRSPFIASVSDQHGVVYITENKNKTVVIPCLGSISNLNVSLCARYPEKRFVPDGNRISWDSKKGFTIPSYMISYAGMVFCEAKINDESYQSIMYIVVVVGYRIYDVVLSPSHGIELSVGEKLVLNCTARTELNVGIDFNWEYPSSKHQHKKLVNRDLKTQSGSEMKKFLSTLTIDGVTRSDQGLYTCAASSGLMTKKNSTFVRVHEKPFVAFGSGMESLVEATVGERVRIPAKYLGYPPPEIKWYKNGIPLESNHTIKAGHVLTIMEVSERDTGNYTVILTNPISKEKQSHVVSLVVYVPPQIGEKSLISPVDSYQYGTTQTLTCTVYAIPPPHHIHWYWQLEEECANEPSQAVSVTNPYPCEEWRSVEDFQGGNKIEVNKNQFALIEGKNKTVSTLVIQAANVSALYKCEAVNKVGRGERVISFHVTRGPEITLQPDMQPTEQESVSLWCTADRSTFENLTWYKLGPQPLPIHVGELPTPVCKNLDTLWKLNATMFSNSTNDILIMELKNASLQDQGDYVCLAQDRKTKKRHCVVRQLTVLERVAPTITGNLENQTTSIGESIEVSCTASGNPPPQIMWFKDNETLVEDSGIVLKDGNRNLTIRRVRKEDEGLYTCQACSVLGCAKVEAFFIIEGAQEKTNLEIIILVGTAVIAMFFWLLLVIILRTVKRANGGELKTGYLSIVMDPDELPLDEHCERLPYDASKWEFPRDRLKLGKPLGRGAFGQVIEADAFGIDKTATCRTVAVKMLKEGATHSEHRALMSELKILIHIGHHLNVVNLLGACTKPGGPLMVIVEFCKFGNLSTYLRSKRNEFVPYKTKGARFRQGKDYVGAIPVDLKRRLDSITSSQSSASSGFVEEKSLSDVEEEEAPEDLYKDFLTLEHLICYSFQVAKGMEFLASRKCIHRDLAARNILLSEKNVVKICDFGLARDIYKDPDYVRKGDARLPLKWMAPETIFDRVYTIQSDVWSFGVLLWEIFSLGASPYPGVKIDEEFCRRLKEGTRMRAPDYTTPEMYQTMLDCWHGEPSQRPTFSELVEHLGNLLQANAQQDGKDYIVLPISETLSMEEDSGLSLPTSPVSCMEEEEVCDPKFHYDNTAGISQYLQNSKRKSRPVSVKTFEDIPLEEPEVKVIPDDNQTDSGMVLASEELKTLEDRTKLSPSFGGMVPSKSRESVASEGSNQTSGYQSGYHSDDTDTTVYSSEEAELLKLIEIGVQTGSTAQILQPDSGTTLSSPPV

Structure (SMILES): C[C@H]1CN(C(=O)CC#N)[C@]12CCN(c1ncnc3[nH]ccc13)C2 [JTE-052]
- IC50 (human mast cells): 133 ± 18 nM
- IC50 (MAPKAP-K2): > 1000 nM
- IC50 (PKCζ): > 1000 nM
- IC50 (CK2): > 1000 nM
- IC50 (KDR): > 1000 nM
- IC50 (ROCK-II): 141 nM
- IC50 (PKCβI): > 1000 nM
- IC50 (Flt1): > 1000 nM
- IC50 (PKA): > 1000 nM
- IC50 (c-RAF): > 1000 nM
- IC50 [1]: 33 ± 14 nM
- IC50 [2]: 40 ± 9 nM
- IC50 [3]: 84 ± 11 nM
- IC50 [4]: 304 ± 22 nM
- IC50 [5]: 18 ± 3 nM
- IC50 (IGF-1R): > 1000 nM
- IC50 (FGFR1): > 1000 nM
- IC50 (PKBα): > 1000 nM
- IC50 (human monocytes): 277 ± 146 nM
- IC50 (cKit): > 1000 nM
- IC50 (Flt3): > 1000 nM
- IC50 (Aurora-A): > 1000 nM
- IC50 (PDGFRα): > 1000 nM
- IC50 (Tie2): > 1000 nM
- IC50 (PDK1): > 1000 nM
- IC50 (MSK1): > 1000 nM
- IC50 (CDK2/cyclinA): > 1000 nM
- IC50 (MAPK2): > 1000 nM
- IC50 (ZAP-70): > 1000 nM
- IC50 (IR): > 1000 nM
